Data on 6 molecules can be found in patent US8853190B2, “Steroids having increased water solubility and resistance against metabolism, and methods for their production” (Umecrine AB, priority 2006, dated 2014).

The nature of the data set: HPLC retention times (reverse phase) as a measure of hydrophilicity. To be noted: reverse phase C18 3.5 μm 4.6×75 mm; 45° C.; flow 1.0 mL/min; isocratic 40:60 v/v H2O:MeOH; shorter retention times correspond to higher hydrophilicity. Format: physicochemical. On the procedure:
HPLC Retention Times [min] for Compounds According to the Invention
HPLC Conditions: Waters's SYMMETRY® HPLC column system (C18 3.5 μm 4.6×75 mm); T: 45° C.; flow 1.0 mL/min; isocratic eluent conditions 40:60 v/v/H2O:MeOH. Injection volume: 100 μL.
Solvents used for eluent are of HPLC grade, water filtered through a Millipore apparatus; all solvents were filtered through a 0.45 μm Millipore filter and degassed by N2 stream prior use.
Since the analyses are carried in reverse phase, shorter retention times correspond to higher hydrophilicity.
In the case of `C#C[C@]1(O)C=C2CCC3C(CC[C@@]4(C)C3CC[C@@H]4C(C)=O)[C@@]2(C)CC1` (stereo partly drawn) [UC 2024, 3β-ethynyl, 3α-hydroxyl, Δ4-pregnen-20-one], the “retention time” value was found to be 14.0 min. As for `C#C[C@@]1(O)CC[C@@]2(C)C(CC[C@@H]3[C@@H]2CC[C@]2(C)/C(=N\O)CC[C@@H]32)C1` (stereo partly drawn) [UC 2025, 3β-ethynyl, 3α-hydroxyl, androstan-17-one oxime], the figure is 13.9 min; as for `CC(=O)[C@H]1CC[C@H]2[C@@H]3CC[C@H]4C[C@@H](O)CC[C@]4(C)[C@H]3CC[C@]12C` [3β-5α-pregnan-20-one, reference compound], 30.0 min; as for `C#C[C@@]1(O)CC[C@@]2(C)[C@@H](CC[C@@H]3[C@@H]2CC[C@]2(C)[C@@H](/C(C)=N/O)CC[C@@H]32)C1` [UC 2026, 3β-ethynyl, 3α-hydroxyl, 5α-pregnan-20-one oxime], 16.9 min. The same measure for `C#C[C@@]1(O)CC[C@@]2(C)[C@@H](CC[C@@H]3[C@@H]2CC[C@]2(C)C(=O)CC[C@@H]32)C1` [UC 2021, 3β-ethynyl, 3α-hydroxyl, androstan-17-one]: 7.8 min; for `CC(=O)[C@H]1CC[C@H]2[C@@H]3CC[C@@H]4C[C@@H](O)CC[C@]4(C)[C@H]3CC[C@]12C` [3β-5β-pregnan-20-one, reference compound]: 24.4 min.
